Converted amounts (≈) assume the structure as drawn. Read-outs that look alike come from different tables or passages of the source.
Legend:
[1] = Isothermal titration calorimetry (ITC) of CB[6] host with dicationic guest molecules; format: binding; settings: in water at 30° C.
Method: Isothermal titration calorimetry (ITC) was previously employed to study complexation parameters of Compound 1 [63]. Measurement of the host-guest binding thermodynamic profile using ITC provides in a single experiment not only the binding constants (Kb) and binding stoichiometry (n), but also the differences of enthalpy (ΔH) and entropy (ΔS) of binding.
The experiment was carried out by loading the ITC sample cell with saturated aqueous solution of Compound 1 (1.4 ml) and titrating it with a neutral aqueous solution of the dicationic dihydrochloride salts of various exemplary guest molecules at concentrations that ranged from 3.3 mM to 5.0 mM. The heat generated during each injection was recorded (FIG. 1) and the thermodynamic parameters were acquired by non-linear least squares fit of the calorimetric titration data to a one-site binding model (Table 2).
A saturated solution of Compound 1 (0.4 mM) in water at pH=7 was prepared by stirring an excess of finely powdered Compound 1 overnight at 30° C. and filtering through a 100-μm micro-filter. Solutions of the guest molecules at concentrations of 3.3-6 mM, were prepared and filtered through a 100-μm micro-filter as well. Titration calorimetry measurements were performed with a VP-ITC calorimeter (Microcal, Northampton, Mass.) as previously described. Repeat determinations indicated errors of 3-10% in n, ΔH, degree, and K values over the most favorable concentration range. A solution of Compound 1 was titrated by 29 injections of 6 μL of guest molecule solutions at 30° C. each, and the titration data were analyzed using Origin2000 software.

[2] = cited from earlier work
[3] = cited from earlier work; remark: listed apart in the source
[4] = Solubility; format: physicochemical; settings: water at pH=7, 30° C.

With `Cl.Cl.NCC#CC#CCN1CCCC1` [Compound 5′, N-6-pyrrolidinium-hexa-2,4-diynyl ammonium dichloride] the ΔH of binding [1] was -4.452 ± 0.057 kcal/mol and the ΔS of binding [1] was 9.29 cal/(mol·K).

For `O=C1N2CN3C(=O)N4CN5C(=O)N6CN7C(=O)N8CN9C(=O)N%10CN1C1C2N2CN%11C(=O)N(CN%12C(=O)N(CN%13C(=O)N(CN%14C(=O)N(CN1C2=O)C%10C9%14)C8C7%13)C6C5%12)C4C3%11` (stereo not drawn) [CB[5]], the “solubility in aqueous acid” value ([2]; 3M HCl) is listed as “about 60 mM”.

For `O=C1N2CN3C(=O)N4CN5C(=O)N6CN7C(=O)N8CN9C(=O)N%10CN%11C(=O)N%12CN%13C(=O)N%14CN1C1C2N2CN%15C(=O)N(CN%16C(=O)N(CN%17C(=O)N(CN%18C(=O)N(CN%19C(=O)N(CN%20C(=O)N(CN1C2=O)C%14C%13%20)C%12C%11%19)C%10C9%18)C8C7%17)C6C5%16)C4C3%15` (stereo not drawn) [CB[7]], the “solubility in aqueous acid” value ([2]; 3M HCl) is given as “about 700 mM”.

With `C(C#CCN1CCCC1)#CCN1CCCC1.Cl.Cl` [Compound 6′, 1,6-Dipyrrolidinium-2,4-hexadiyne dichloride] the ΔH of binding [1] was -3.718 ± 0.044 kcal/mol and the ΔS of binding [1] was 12.8 cal/(mol·K).

For `Cl.Cl.NCC#CC#CCN` [Compound 4′, Hexa-2,4-diyne-1,6-diammonium dihydrochloride], the ΔH of binding [1] was -0.696 ± 0.005 kcal/mol and the ΔS of binding [1] was 23.51.

In the case of `O=C1N2CN3C(=O)N4CN5C(=O)N6CN7C(=O)N8CN9C(=O)N%10CN%11C(=O)N%12CN1C1C2N2CN%13C(=O)N(CN%14C(=O)N(CN%15C(=O)N(CN%16C(=O)N(CN%17C(=O)N(CN1C2=O)C%12C%11%17)C%10C9%16)C8C7%15)C6C5%14)C4C3%13` (stereo not drawn) [Compound 1, Cucurbit[6]uril], the “pKa value of the conjugate acid” value [3] is given as 3.02, the “concentration of saturated solution in water” value [4] is given as 400 µM and the “solubility in aqueous acid” value ([2]; HCO2H/H2O (1:1)) is given as 61 mM (≈ 60.8 mg/mL).

With `NCCCCCCN` [Compound 3′, 1,6-diaminohexane] the ΔH of binding [1] was -13.760 ± 0.090 kcal/mol, the ΔS of binding [1] was -20.4 cal/(mol·K) and the “ΔS of binding (entropy term, text)” value ([1]; text values in J) was −85.77 J/mol.° K. For the same molecule, the “ΔH binding enthalpy” value ([1]; text values in KJ) was -13.76 kcal/mol.

Reference: patent US8715635B2, “Frictionless molecular rotary motors” (Technion Research & Development Foundation Limited, priority 2007, dated 2014)
